Measured values reported in PubChem BioAssay AID2060337 (Molecular Pharmacology Branch, DTP, NCI, 2025).
Values joined by “and” are separate entries in the source; they are usually repeats but may differ in a detail not shown here. Equal entries are not always repeated.

System: 832693-133-R-J1-PDC multi-cell spheroids, viability
Assay: Anticancer human tumor 832693-133-R-J1-PDC patient-derived head and neck squamous carcinoma cell line growth inhibition [IpAb]
Settings: for viability, T/C: stronger effect = lower value; active means viability on the fitted dose curve at most 10% of control; inactive means the rest
From the text: Combinatorial screen of targeted agents with ipatasertib and abemaciclib in multi-cell type tumor spheroids
A high-throughput screen of multi-cell type tumor spheroids was designed to identify active combinations of targeted small molecules and ipatasertib or abemaciclib. Complex spheroids include a stromal component modeled by human endothelial cells (HUVEC) and fibroblasts modeled by human mesenchymal stem cells (MSCs). The concentration ranges selected for each drug and investigational agent were based upon clinically achievable concentrations if the clinical Cmax of the agent was known.
Compounds. The drugs and investigational agents: ipatasertib (NSC767898), abemaciclib(NSC768073), selumetinib (NSC741078), trametinib (758246), adavosertib (NSC754352), everolimus (NSC733504), sapanisertib (NSC764658), vemurafenib (NSC761431), venetoclax (NSC766270), copanlisib (NSC809693), apelisib (NSC765974), palbociblib (NSC758247), vemurafenib (NSC761431), dabrafenib (NSC764134), ravoxertinib (NSC781343), BMS-387032 (NSC767048), sotorasib (NSC818433), talazoparib (NSC767125) and afursertib (NSC778305), were obtained from the National Cancer Institute (NCI) Developmental Therapeutics Program Chemical Repository. The FDA-approved anticancer drug set is available from the NCI Developmental Therapeutics Program. […] The stock solutions were prepared in dimethyl sulfoxide (DMSO, Sigma-Aldrich, St. Louis, MO, cat. D2650) at 800-fold the tested concentration and stored at -70 degrees C prior to their use. All drugs and investigational agents were tested over a range starting from a high concentration at or near the clinical Cmax and decreasing in half-log increments. If the clinical Cmax for an agent had not been determined, the highest concentration tested was 10 microM.
NCI60 Cell Culture. NCI60 cell lines were obtained from the NCI Developmental Therapeutics Program Tumor Repository. For each lot of cells, the Repository performed Applied Biosystems AmpFLSTR Identifiler testing with PCR amplification to confirm consistency with the published Identifier STR profile for each cell line. Cells were kept in continuous culture for no more than 20 passages. The optimal seeding densities for each of the cell lines at each time point assessed were determined prior to performing the concentration response studies. Briefly, the NCI60 human tumor lines were grown as monolayers in RPMI 1640 medium supplemented with 10% FBS and 2 mmol/L L-glutamine.
An additional 9 lines were from the NCI60 cell line panel including MDA-MB-231 breast carcinoma, MDA-MB-468 breast carcinoma, MCF7 breast carcinoma, Hs578T breast carcinoma, MALME-3M melanoma, SK-MEL-2 melanoma, SK-OV-3 ovarian carcinoma, DU-145 prostate carcinoma, PC-3 prostate carcinoma, all cell lines along with major genetic alterations are listed on Table 2. Pooled donor human umbilical vein endothelial cells (HUVEC, Lonza, cat. CC-2519) and human mesenchymal stem cells (hMSC, Lonza, cat. PT-2501) were purchased from Lonza (Walkersville, MD).
PDMR cell lines were grown in complete medium (DC medium): Dulbecco's modified Eagle's medium (DMEM)/F12 supplemented with 5% fetal bovine serum (FBS), 2 mM L-glutamine, 100 U/mL penicillin and 100 µg/ml streptomycin, 0.4 µg/ml hydrocortisone, 10 ng/ml epidermal growth factor (EGF) recombinant human protein, 24 µg/mL adenine, and 0.1 mg/mL primocin. During culture from frozen stock vials, PDMR cells were cultured in the same medium containing 10 µM Y-27632 (see Table 3). The PDCs were cultured in complete DMEM/F12 media without 10 microM Y-27632 dihydrochloride for at least two passages prior to the screen. The pooled donor HUVEC and hMSC were cultured in endothelial cell growth medium 2 (PromoCell, Heidelberg, Germany, cat. C-22011) and mesenchymal stem cell growth medium 2 (PromoCell, cat. C-28009), respectively. For all experiments, HUVEC and hMSC were used at passages </=5.
[…]

[1] = curve of first compound, second compound 0.1 µM
[2] = curve of first compound, second compound 0.316 µM
[3] = curve of first compound, second compound 1 µM
[4] = second compound 0.1 µM, first compound 0.0316 µM
[5] = second compound 0.1 µM, first compound 0.1 µM
[6] = second compound 0.1 µM, first compound 0.316 µM
[7] = second compound 0.1 µM, first compound 1 µM
[8] = second compound 0.1 µM, first compound 3.16 µM
[9] = second compound 0.1 µM, first compound 10 µM
[10] = second compound 0.316 µM, first compound 0.0316 µM
[11] = second compound 0.316 µM, first compound 0.1 µM
[12] = second compound 0.316 µM, first compound 0.316 µM
[13] = second compound 0.316 µM, first compound 1 µM
[14] = second compound 0.316 µM, first compound 3.16 µM
[15] = second compound 0.316 µM, first compound 10 µM
[16] = second compound 1 µM, first compound 0.0316 µM
[17] = second compound 1 µM, first compound 0.1 µM
[18] = second compound 1 µM, first compound 0.316 µM
[19] = second compound 1 µM, first compound 1 µM
[20] = second compound 1 µM, first compound 3.16 µM
[21] = second compound 1 µM, first compound 10 µM
[22] = curve of first compound, second compound 0.01 µM
[23] = curve of first compound, second compound 0.0316 µM
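Further: spheroids exposed to the drugs for one week before the viability readout.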
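Wherever viability, T/C is given: 100% = DMSO vehicle control wells.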

C=CCn1c(=O)c2cnc(Nc3ccc(N4CCN(C)CC4)cc3)nc2n1-c1cccc(C(C)(C)O)n1 + CC(C)NCC(C(=O)N1CCN(c2ncnc3c2C(C)CC3O)CC1)c1ccc(Cl)cc1
35.8 nM: IC50 [3]
inactive: viability, T/C [4] 86% | viability, T/C [5] 58% | viability, T/C [6] 25.8% | viability, T/C [7] 20.1% | viability, T/C [8] 22.8% | viability, T/C [9] 10.4% | viability, T/C [10] 66.1% | viability, T/C [11] 45.8% | viability, T/C [12] 23% | viability, T/C [13] 14.6% | viability, T/C [14] 14.9% | viability, T/C [16] 51.7% | viability, T/C [17] 35.5% | viability, T/C [18] 18.3% | viability, T/C [19] 12.9% | viability, T/C (second compound 3.16 µM, first compound 0.0316 µM) 48.5% | viability, T/C (second compound 3.16 µM, first compound 0.1 µM) 36% | viability, T/C (second compound 3.16 µM, first compound 0.316 µM) 25.3% | viability, T/C (second compound 3.16 µM, first compound 1 µM) 16.1% | viability, T/C (second compound 10 µM, first compound 0.0316 µM) 52.4% | viability, T/C (second compound 10 µM, first compound 0.1 µM) 43.2% | viability, T/C (second compound 10 µM, first compound 0.316 µM) 26.1% | viability, T/C (second compound 10 µM, first compound 1 µM) 9.68%
133 nM: IC50 [1]
active: viability, T/C [15] 6.24% | viability, T/C [20] 11.6% | viability, T/C [21] 3.5% | viability, T/C (second compound 3.16 µM, first compound 3.16 µM) 11.9% | viability, T/C (second compound 3.16 µM, first compound 10 µM) 3.31% | viability, T/C (second compound 10 µM, first compound 3.16 µM) 6.52% | viability, T/C (second compound 10 µM, first compound 10 µM) 1.52%
76.7 nM: IC50 [2]
42.9 nM: IC50 (curve of first compound, second compound 10 µM)
< 31.6 nM: IC50 (curve of first compound, second compound 3.16 µM)

Cn1cnc2c(F)c(Nc3ccc(Br)cc3Cl)c(C(=O)NOCCO)cc21 + CCN1CCN(Cc2ccc(Nc3ncc(F)c(-c4cc(F)c5nc(C)n(C(C)C)c5c4)n3)nc2)CC1
118 nM: IC50 [22]
49 nM: IC50 [23]
15.3 nM: IC50 [2]
inactive: viability, T/C (second compound 0.01 µM, first compound 0.00949 µM) 62.4% | viability, T/C (second compound 0.01 µM, first compound 0.03 µM) 58.7% | viability, T/C (second compound 0.01 µM, first compound 0.0949 µM) 50.4% | viability, T/C (second compound 0.01 µM, first compound 0.3 µM) 41.3% | viability, T/C (second compound 0.01 µM, first compound 0.949 µM) 34% | viability, T/C (second compound 0.01 µM, first compound 3 µM) 14.1% | viability, T/C (second compound 0.0316 µM, first compound 0.00949 µM) 54.3% | viability, T/C (second compound 0.0316 µM, first compound 0.03 µM) 57.5% | viability, T/C (second compound 0.0316 µM, first compound 0.0949 µM) 44.5% | viability, T/C (second compound 0.0316 µM, first compound 0.3 µM) 35.5% | viability, T/C (second compound 0.0316 µM, first compound 0.949 µM) 29.1% | viability, T/C (second compound 0.0316 µM, first compound 3 µM) 13.4% | viability, T/C (second compound 0.1 µM, first compound 0.00949 µM) 47.2% | viability, T/C (second compound 0.1 µM, first compound 0.03 µM) 47.4% | viability, T/C (second compound 0.1 µM, first compound 0.0949 µM) 36.4% | viability, T/C (second compound 0.1 µM, first compound 0.3 µM) 32.1% | viability, T/C (second compound 0.1 µM, first compound 0.949 µM) 24.4% | viability, T/C (second compound 0.1 µM, first compound 3 µM) 12.6% | viability, T/C (second compound 0.316 µM, first compound 0.00949 µM) 54.7% | viability, T/C (second compound 0.316 µM, first compound 0.03 µM) 43.9% | viability, T/C (second compound 0.316 µM, first compound 0.0949 µM) 36.1% | viability, T/C (second compound 0.316 µM, first compound 0.3 µM) 34.8% | viability, T/C (second compound 0.316 µM, first compound 0.949 µM) 25.3% | viability, T/C (second compound 0.316 µM, first compound 3 µM) 15.1% | viability, T/C (second compound 1 µM, first compound 0.00949 µM) 64.6% | viability, T/C (second compound 1 µM, first compound 0.03 µM) 58.2% | viability, T/C (second compound 1 µM, first compound 0.0949 µM) 51.5% | viability, T/C (second compound 1 µM, first compound 0.3 µM) 47.9% | viability, T/C (second compound 1 µM, first compound 0.949 µM) 40.7% | viability, T/C (second compound 1 µM, first compound 3 µM) 28.2%
< 9.49 nM: IC50 [1]
170 nM: IC50 [3]

C=CC(=O)N1CCN(c2nc(=O)n(-c3c(C)ccnc3C(C)C)c3nc(-c4c(O)cccc4F)c(F)cc23)C(C)C1 (configuration not stated) + CCN1CCN(Cc2ccc(Nc3ncc(F)c(-c4cc(F)c5nc(C)n(C(C)C)c5c4)n3)nc2)CC1
inactive: viability, T/C (second compound 0.01 µM, first compound 0.0316 µM) 96.7% | viability, T/C (second compound 0.01 µM, first compound 0.1 µM) 104% | viability, T/C (second compound 0.01 µM, first compound 0.316 µM) 105% | viability, T/C (second compound 0.01 µM, first compound 1 µM) 109% | viability, T/C (second compound 0.01 µM, first compound 3.16 µM) 117% | viability, T/C (second compound 0.01 µM, first compound 10 µM) 104% | viability, T/C (second compound 0.0316 µM, first compound 0.0316 µM) 89.5% | viability, T/C (second compound 0.0316 µM, first compound 0.1 µM) 89.6% | viability, T/C (second compound 0.0316 µM, first compound 0.316 µM) 90.5% | viability, T/C (second compound 0.0316 µM, first compound 1 µM) 92.2% | viability, T/C (second compound 0.0316 µM, first compound 3.16 µM) 115% | viability, T/C (second compound 0.0316 µM, first compound 10 µM) 95% | viability, T/C [4] 68.8% | viability, T/C [5] 78.8% | viability, T/C [6] 73.3% | viability, T/C [7] 82.9% | viability, T/C [8] 101% | viability, T/C [9] 86.3% | viability, T/C [10] 58.3% | viability, T/C [11] 59.3% | viability, T/C [12] 64% | viability, T/C [13] 64.9% | viability, T/C [14] 77.5% | viability, T/C [15] 84.2% | viability, T/C [16] 53.8% | viability, T/C [17] 58.9% | viability, T/C [18] 65.5% | viability, T/C [19] 73.7% | viability, T/C [20] 82.4% | viability, T/C [21] 98.4%
> 10000 nM: IC50 [22] | IC50 [23] | IC50 [1] | IC50 [2] | IC50 [3]

Cn1cnc2c(F)c(Nc3ccc(Br)cc3Cl)c(C(=O)NOCCO)cc21
inactive: viability, T/C (compound 0.00949 µM) 79.6% and 64.7% | viability, T/C (compound 0.03 µM) 69.7% and 59.6% | viability, T/C (compound 0.0949 µM) 57.5% and 53.9% | viability, T/C (compound 0.3 µM) 48.1% and 43.7% | viability, T/C (compound 0.949 µM) 38.3% and 35.9% | viability, T/C (compound 3 µM) 19.1% and 15%
241 nM and 167 nM: IC50 (curve of compound)
